Assay results published in patent US20220257491A1, “Prebiotic Oral Care Compositions and Methods” (Colgate-Palmolive Company, priority 2021, published 2022).
Marks after values point to notes of the source that are not given here.

Experiments:
Assay type in all cases: cell-based
V. parvula = assay: Multi-species biofilm composition: absolute abundance of V. parvula; details: mean±SD n=3
Procedure: (§1) Biofilms are grown vertically on Calcium Deficient Hydroxyapatite (CAD-HA) disks (Hitemco Medical, Old Bethpage, USA) using the Amsterdam Active Adhesion model. Biofilms are allowed to establish during 24 h (37° C., 170 rpm) under micro-aerophilic conditions (6% O2, 7% CO2, 7% H2, 80% N2). After this 24 h, disks are rinsed 3 times a day for 3 minutes (RT, 250 rpm), for 3 consecutive days, by transferring the lid containing the disks to a new 24-well plate containing 2 mL/well of the appropriate substrate solution. As a negative control, PBS (pH 5.7) without substrate supplementation is used. After each rinsing step, disks are shortly dip-rinsed in a new 24-well plate containing fresh modified BHI medium (2 mL/well) to remove remaining substrate traces. Subsequently, the lid is transferred to another 24-well plate containing fresh modified BHI medium (2 mL/well), followed by incubation (micro-aerophilic, 37° C., 170 rpm) until the next rinsing step.
(§2) NADM, N-acetyl-D-glucosamine (“NADG”) and D-(+)-mannose are selected to determine their effects on multi-species biofilm composition. Repeated rinsing of the biofilms with the substrates at a concentration of 1M results in a significant decrease in absolute numbers in at least four of the pathogenic bacterial species tested in the assay, compared to the control, the results of which are described in Table 1 below. Absolute abundances of bacterial species are shown as mean±SD (n=3) logarithmic values of the genome equivalents per millilitre (log(Geq/mL)).

A. viscosus = assay: Multi-species biofilm composition: absolute abundance of A. viscosus; details: mean±SD n=3
Procedure: as §1
(§3) NADM, N-acetyl-D-glucosamine (“NADG”) and D-(+)-mannose are selected to determine their effects on multi-species biofilm composition. […] decrease in absolute numbers in at least four of the pathogenic bacterial species tested in the assay, compared to the control, the results of which are described in Table 1 below. Absolute abundances of bacterial species are shown as mean±SD (n=3) logarithmic values of the genome equivalents per millilitre (log(Geq/mL)).

A. naeslundii = assay: Multi-species biofilm composition: absolute abundance of A. naeslundii; details: mean±SD n=3
Procedure: as §1, §2

S. sobrinus = assay: Multi-species biofilm composition: absolute abundance of S. sobrinus; details: mean±SD n=3
Procedure: as §1, §3

[1] = tested on: P. intermedia virulence genes; assay: Multi-species biofilm virulence gene expression, SYBR RT-qPCR: P. intermedia; details: for Fold Change in virulence gene expression: DnaJ / Fold Change in virulence gene expression: DnaK / Fold Change in virulence gene expression: ECF / Fold Change in virulence gene expression: GroES / Fold Change in virulence gene expression: HtpG / Fold Change in virulence gene expression: KpsD / Fold Change in virulence gene expression: adpc / Fold Change in virulence gene expression: clpB / Fold Change in virulence gene expression: inpA / Fold Change in virulence gene expression: phg: relative to control (=1), 2^-ΔΔCt, geometric mean n=3
Procedure: as §1
(§4) The expression of 33 virulence genes from 4 periodontal pathogens is analysed to evaluate the relative virulence of the substrate-treated biofilms. For all three substrates, virulence gene expression is determined relatively to the control, and these values are also compared between substrates when this is relevant (Tables 5a-5d).

[2] = tested on: human oral keratinocytes (HOK-18A); assay: Inflammatory mediator gene expression in keratinocytes exposed to substrate-treated biofilms; details: for Fold change in inflammatory mediator gene expression: IL-1β / Fold change in inflammatory mediator gene expression: IL-6 / Fold change in inflammatory mediator gene expression: IL-8 / Fold change in inflammatory mediator gene expression: MMP-8 / Fold change in inflammatory mediator gene expression: TNF-α: relative to control (=1), geometric mean (95% C.I.) n=3
Procedure: Cultures of immortalized human oral keratinocytes (HOK-18A) are grown. The relative inflammatory potential of the substrate-treated multi-species biofilms is evaluated by analyzing the expression of five inflammatory mediator genes in human oral keratinocytes (HOKs) exposed to the substrate-treated biofilms. […] The IL-8 levels in the cellular supernatant are determined as well. RNA is converted to cDNA and relative expression of inflammatory mediator genes is determined as described above with respect to the cellular housekeeping gene (3-actin.
In HOKs exposed to substrate-treated (substrate concentrations of 1 M) multi-species biofilms, mostly decreases in inflammatory mediator gene expression are observed and measured via SYBR RT-qPCR, the results of which are detailed in Table 6.
All substrates are dissolved in PBS at a concentration of 1 M (upper part) or 1% (w/v) (lower part). Values between 0 and 1 represent relative downregulation, values >1 represent relative upregulation. […] For such values, statistically significant differences between two experimental conditions are marked with ‘#1’ (vs. NADM), ‘#2’ (vs. NADG), ‘#3’ (vs. D-(+)-mannose) (P<0.05).

[3] = tested on: F. nucleatum virulence genes; assay: Multi-species biofilm virulence gene expression, SYBR RT-qPCR: F. nucleatum; details: for Fold Change in virulence gene expression: ABC transp. perm. / Fold Change in virulence gene expression: EF-G / Fold Change in virulence gene expression: but.-coA transf. / Fold Change in virulence gene expression: hemin receptor / Fold Change in virulence gene expression: hemolysin / Fold Change in virulence gene expression: ompA / Fold Change in virulence gene expression: transposase: relative to control (=1), 2^-ΔΔCt, geometric mean n=3
Procedure: as §1, §4

multi-species biofilms = assay: Multi-species biofilm organic acid balances (supernatant); details: >0 production, <0 consumption, mean±SD n=3
Procedure: as §1
To examine the effect of NADM and the influence of the orientation and absence/presence of the N-acetyl group on organic acid production and consumption, supernatant samples from substrate-treated or untreated multi-species biofilms are analysed. […] When comparing relevant significant differences between substrate conditions, an increase in acetate production is observed for NADM compared to D-(+)-mannose (3084±174 vs. 1934±56 mg/L).

A. actinomycetemcomitans = assay: Multi-species biofilm composition: absolute abundance of A. actinomycetemcomitans; details: mean±SD n=3
Procedure: as §1, §3

[4] = biofilm rinsed with substrate 1%
[5] = biofilm rinsed with substrate 1M
[6] = substrate 1 M, listed as D-(+)-mannose

O=C[C@@H](O)[C@@H](O)[C@H](O)[C@H](O)CO [D-mannose, D-(+)-mannose]
Absolute abundance Vp (V. parvula) (V. parvula; substrate 1%(w/v) in PBS): 9.93 ± 0.20 log(Geq/mL) | Absolute abundance Vp (V. parvula) (V. parvula; substrate 1 M in PBS): 10.18 ± 0.09 log(Geq/mL) | Absolute abundance Av (A. viscosus) (A. viscosus; substrate 1%(w/v) in PBS): 8.00 ± 0.17 log(Geq/mL) | Absolute abundance Av (A. viscosus) (A. viscosus; substrate 1 M in PBS): 6.40 ± 0.48 log(Geq/mL) | Absolute abundance An (A. naeslundii) (A. naeslundii; substrate 1%(w/v) in PBS): 7.59 ± 0.05 log(Geq/mL) | Absolute abundance An (A. naeslundii) (A. naeslundii; substrate 1 M in PBS): 5.54 ± 0.24 log(Geq/mL) | Absolute abundance S. sobrinus (S. sobrinus; substrate 1%(w/v) in PBS): 5.28 ± 0.44 log(Geq/mL) | Absolute abundance S. sobrinus (S. sobrinus; substrate 1 M in PBS): 5.44 ± 0.31 log(Geq/mL) | Relative P. intermedia virulence gene expression, downregulation ([1]; substrate 1%(w/v), D-(+)-mannose for 3 genes): 2- to 2.7 fold | Fold Change in virulence gene expression: DnaJ ([1]; substrate 1%): 0.37 fold | Fold Change in virulence gene expression: DnaK ([1]; substrate 1%): 0.63 fold | Fold Change in virulence gene expression: ECF ([1]; substrate 1%): 0.6 fold | Fold Change in virulence gene expression: GroES ([1]; substrate 1%): 0.51 fold | Fold Change in virulence gene expression: HtpG ([1]; substrate 1%): 0.46 fold | Fold Change in virulence gene expression: KpsD ([1]; substrate 1%): 0.96 fold | Fold Change in virulence gene expression: adpc ([1]; substrate 1%): 0.54 fold | Fold Change in virulence gene expression: clpB ([1]; substrate 1%): 1.00 fold | Fold Change in virulence gene expression: inpA ([1]; substrate 1%): 0.37 fold | Fold Change in virulence gene expression: phg ([1]; substrate 1%): 0.50 fold | Fold Change in virulence gene expression: DnaJ ([1]; substrate 1M): 0.03 fold | Fold Change in virulence gene expression: DnaK ([1]; substrate 1M): 0.44 fold | Fold Change in virulence gene expression: ECF ([1]; substrate 1M): 1.47 fold | Fold Change in virulence gene expression: GroES ([1]; substrate 1M): 0.37 fold | Fold Change in virulence gene expression: HtpG ([1]; substrate 1M): 0.29 fold | Fold Change in virulence gene expression: KpsD ([1]; substrate 1M): 0.42 fold | Fold Change in virulence gene expression: adpc ([1]; substrate 1M): 0.27 fold | Fold Change in virulence gene expression: clpB ([1]; substrate 1M): 0.14 fold | Fold Change in virulence gene expression: inpA ([1]; substrate 1M): 0.47 fold | Fold Change in virulence gene expression: phg ([1]; substrate 1M): 0.10 fold | Fold change in inflammatory mediator gene expression: IL-1β [2, 4]: 0.79 (0.43-1.48) fold | Fold change in inflammatory mediator gene expression: IL-6 [2, 4]: 0.79 (0.60-1.06) fold | Fold change in inflammatory mediator gene expression: IL-8 [2, 4]: 1.22 (0.79-1.86) fold | Fold change in inflammatory mediator gene expression: MMP-8 [2, 4]: 0.40 (0.27-0.58)* fold | Fold change in inflammatory mediator gene expression: TNF-α [2, 4]: 0.770.48-1.23) fold | Fold change in inflammatory mediator gene expression: IL-1β [2, 5]: 0.81 (0.59-1.12) fold | Fold change in inflammatory mediator gene expression: IL-6 [2, 5]: 0.63 (0.41-0.97) fold | Fold change in inflammatory mediator gene expression: IL-8 [2, 5]: 0.12 (0.06-0.27)* fold | Fold change in inflammatory mediator gene expression: MMP-8 [2, 5]: 1.25 (1.10-1.42) fold | Fold change in inflammatory mediator gene expression: TNF-α [2, 5]: 0.77 (0.37-1.60) fold | Decreased MMP-8 gene expression ([2]; substrate 1%(w/v)): 2.5 fold | Fold Change in virulence gene expression: ABC transp. perm. ([3]; substrate 1%): 0.73 fold | Fold Change in virulence gene expression: EF-G ([3]; substrate 1%): 0.13 fold | Fold Change in virulence gene expression: but.-coA transf. ([3]; substrate 1%): 0.37 fold | Fold Change in virulence gene expression: hemin receptor ([3]; substrate 1%): 0.26 fold | Fold Change in virulence gene expression: hemolysin ([3]; substrate 1%): 0.89 fold | Fold Change in virulence gene expression: ompA ([3]; substrate 1%): 1.17 fold | Fold Change in virulence gene expression: transposase ([3]; substrate 1%): 1.38 fold | F. nucleatum butyrate acetoacetate CoA transferase gene, upregulation ([3]; substrate 1 M): 2.3 fold | F. nucleatum hemolysin gene, upregulation ([3]; substrate 1 M): 2.1 fold | Fold Change in virulence gene expression: ABC transp. perm. ([3]; substrate 1M): 2.65 fold | Fold Change in virulence gene expression: EF-G ([3]; substrate 1M): 1.36 fold | Fold Change in virulence gene expression: but.-coA transf. ([3]; substrate 1M): 2.27 fold | Fold Change in virulence gene expression: hemin receptor ([3]; substrate 1M): 3.82 fold | Fold Change in virulence gene expression: hemolysin ([3]; substrate 1M): 2.14 fold | Fold Change in virulence gene expression: ompA ([3]; substrate 1M): 1.36 fold | Fold Change in virulence gene expression: transposase ([3]; substrate 1M): 1.46 fold | acetate level in biofilm supernatant (multi-species biofilms; substrate 1%(w/v)): 352 ± 24 mg/L | butyrate level in biofilm supernatant (multi-species biofilms; substrate 1%(w/v)): 1985 ± 37 mg/L | formate level in biofilm supernatant (multi-species biofilms; substrate 1%(w/v)): 3717 ± 114 mg/L | lactate level in biofilm supernatant (multi-species biofilms; substrate 1%(w/v)): 125 ± 0 mg/L | propionate level in biofilm supernatant (multi-species biofilms; substrate 1%(w/v)): 1962 ± 28 mg/L | acetate level in biofilm supernatant (multi-species biofilms; substrate 1 M): 1934 ± 56*^, #1 mg/L | butyrate level in biofilm supernatant (multi-species biofilms; substrate 1 M): 86 ± 15*^, #1, 2 mg/L | formate level in biofilm supernatant (multi-species biofilms; substrate 1 M): 398 ± 12 mg/L | lactate level in biofilm supernatant (multi-species biofilms; substrate 1 M): 125 ± 0 mg/L | propionate level in biofilm supernatant (multi-species biofilms; substrate 1 M): 2821 ± 127 mg/L | acetate level in biofilm supernatant (multi-species biofilms; [6]): 1934 ± 56 mg/L | butyrate level in biofilm supernatant (multi-species biofilms; [6]): 85 ± 15 mg/L | propionate level in biofilm supernatant (multi-species biofilms; [6]): 2821 ± 127 mg/L | Absolute abundance Aa (A. actinomycetemcomitans) (A. actinomycetemcomitans; substrate 1%(w/v) in PBS): 9.02 ± 0.11 log(Geq/mL) | Absolute abundance Aa (A. actinomycetemcomitans) (A. actinomycetemcomitans; substrate 1 M in PBS): 6.07 ± 0.47 log(Geq/mL)
